# Measurements: article PMC8552302 (Journal of medicinal chemistry, 2021)
# Tests used:
# mMC3R = mMC3R (Mus musculus, UniProt P33033); test: β-galactosidase cAMP reporter agonist assay, mMC3R; details: read-out: efficacy at the mMC3R compared to the maximal response of α-MSH
# [1] = rhesus monkey, in vivo; cited from earlier work
# Chain of mMC3R (P33033 whole entry): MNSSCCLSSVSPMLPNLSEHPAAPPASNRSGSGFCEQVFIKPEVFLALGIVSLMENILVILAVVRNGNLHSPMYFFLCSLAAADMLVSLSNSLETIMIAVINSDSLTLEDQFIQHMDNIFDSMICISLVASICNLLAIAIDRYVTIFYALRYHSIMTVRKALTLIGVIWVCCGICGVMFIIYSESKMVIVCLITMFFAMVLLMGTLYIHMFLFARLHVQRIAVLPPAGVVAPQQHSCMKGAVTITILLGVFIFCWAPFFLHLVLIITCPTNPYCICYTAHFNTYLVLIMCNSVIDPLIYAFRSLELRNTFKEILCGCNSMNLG
Emax (mMC3R) [%],Compound,effect on heart rate and blood pressure [1]
90 to 95,"O=C(NC(Cc1ccc(Cl)cc1)C(=O)N1CCC(Cn2cncn2)(C2CCCCC2)CC1)[C@H]1Cc2ccccc2CN1 (stereo in doubt) [THIQ, N-[(3R)-1,2,3,4-tetrahydroisoquinolinium-3-ylcarbonyl]-(1R)-1-(4-chlorobenzyl)2-[4-cyclohexyl-4-(1H-1,2,4-triazol-1-ylmethyl)piperidin-1-yl]-2-oxoethylamine]",
,Ac-DArg-c[Cys-Glu-His-DPhe-Arg-Trp-Cys-NH2 [LY2112688],significantly increased heart rate and blood pressure
